Reference: ChEMBL document CHEMBL6109153, “Development of Membrane-Targeting Osthole Derivatives Containing Pyridinium Quaternary Ammonium Moieties with Potent Anti-Methicillin-Resistant Staphylococcus aureus Properties” (J Med Chem, 2025)
Active and inactive are the calls of the source. The calls are words filed in the database; no cut-off is given here.

Legend:
Staphylococcus aureus [1] = experiment: Antibacterial activity against Staphylococcus aureus ATCC 29213 incubated for 16 to 20 hrs by broth microdilution method; format: functional; details: time 16-20 hrs
Staphylococcus aureus [2] = experiment: Antibacterial activity against methicillin-resistant Staphylococcus aureus M12 incubated for 16 to 20 hrs by broth microdilution method; format: functional; details: time 16-20 hrs
Staphylococcus aureus [3] = experiment: Antibacterial activity against methicillin-resistant Staphylococcus aureus M14 incubated for 16 to 20 hrs by broth microdilution method; format: functional; details: time 16-20 hrs
Staphylococcus aureus [4] = experiment: Antibacterial activity against methicillin-resistant Staphylococcus aureus M17 incubated for 16 to 20 hrs by broth microdilution method; format: functional; details: time 16-20 hrs
Staphylococcus aureus [5] = experiment: Antibacterial activity against methicillin-resistant Staphylococcus aureus M21 incubated for 16 to 20 hrs by broth microdilution method; format: functional; details: time 16-20 hrs
Staphylococcus aureus [6] = experiment: Antibacterial activity against methicillin-resistant Staphylococcus aureus M23 incubated for 16 to 20 hrs by broth microdilution method; format: functional; details: time 16-20 hrs
Escherichia coli = experiment: Antibacterial activity against Escherichia coli ATCC 25922 incubated for 16 to 20 hrs by broth microdilution method; format: functional; details: time 16-20 hrs
[7] = Hemolytic activity against sheep erythrocytes; format: toxicity, cell-based, Ovis aries, Erythrocyte
Staphylococcus aureus [8] = experiment: Induction of bacterial eradication in methicillin-resistant Staphylococcus aureus M11 at 4 times MIC incubated for 8 hrs by time-kill assay; format: functional, organism-based
Staphylococcus aureus [9] = experiment: Bactericidal activity against methicillin-resistant Staphylococcus aureus M11 at 8 ug/ml measured up to 6 hrs in presence of 50% plasma; format: functional, organism-based; details: dose 8.0 µg/ml
[10] = Toxicity in BALB/c mouse assessed as normal appetite at 5 to 40 mg/kg, ip measured for 7 days; format: organism-based; details: in vivo, 168 h, dose 5-40 mg/kg, time 7 day
[11] = Toxicity in BALB/c mouse assessed as normal behavior at 5 to 40 mg/kg, ip measured for 7 days; format: organism-based; details: in vivo, 168 h, dose 5-40 mg/kg, time 7 day
[12] = Toxicity in BALB/c mouse assessed as maximum safe dose administered intraperitoneally measured for 7 days; details: in vivo, route ip, time 7 day
Staphylococcus aureus [13] = experiment: Antibacterial activity against methicillin-resistant Staphylococcus aureus M11 infected in BALB/c mouse model of Sepsis assessed as reduction in redness in inner epidermal abscesses at 4 mg/kg measured after 24 hrs; format: functional, organism-based
Staphylococcus aureus [14] = experiment: Antibacterial activity against methicillin-resistant Staphylococcus aureus M11 infected in BALB/c mouse model of Sepsis assessed as reduction in swelling in inner epidermal abscesses at 4 mg/kg measured after 24 hrs; format: functional, organism-based
Staphylococcus aureus [15] = experiment: Antibacterial activity against methicillin-resistant Staphylococcus aureus M11 infected in BALB/c mouse model of Sepsis assessed as reduction in bacterial count in skin tissues at 8 mg/kg measured after 24 hrs relative to control; format: functional; set-up: scale not given: the % may be the effect or the level left
Staphylococcus aureus [16] = experiment: Antibacterial activity against methicillin-resistant Staphylococcus aureus M11 infected in BALB/c mouse model of Sepsis assessed as reduction in bacterial load in skin tissues at 8 mg/kg measured after 24 hrs; format: functional
Staphylococcus aureus [17] = experiment: Antibacterial activity against methicillin-resistant Staphylococcus aureus M11 infected in BALB/c mouse model of Sepsis measured after 24 hrs; format: functional, organism-based; details: dose 4-8 mg/kg
[18] = Toxicity in BALB/c mouse model of Sepsis infected with methicillin-resistant Staphylococcus aureus M11 assessed as pathological change in liver at 4 to 8 mg/kg measured after 24 hrs by H and E staining based analysis; format: organism-based; details: in vivo, dose 4-8 mg/kg
[19] = Toxicity in BALB/c mouse model of Sepsis infected with methicillin-resistant Staphylococcus aureus M11 assessed as pathological change in spleen at 4 to 8 mg/kg measured after 24 hrs by H and E staining based analysis; format: organism-based; details: in vivo, dose 4-8 mg/kg
[20] = Toxicity in BALB/c mouse model of Sepsis infected with methicillin-resistant Staphylococcus aureus M11 assessed as lesions in heart at 4 to 8 mg/kg measured after 24 hrs by H and E staining based analysis; format: organism-based; details: in vivo, dose 4-8 mg/kg
[21] = Toxicity in BALB/c mouse model of Sepsis infected with methicillin-resistant Staphylococcus aureus M11 assessed as lesions in liver at 4 to 8 mg/kg measured after 24 hrs by H and E staining based analysis; format: organism-based; details: in vivo, dose 4-8 mg/kg
[22] = Toxicity in BALB/c mouse model of Sepsis infected with methicillin-resistant Staphylococcus aureus M11 assessed as lesions in spleen at 4 to 8 mg/kg measured after 24 hrs by H and E staining based analysis; format: organism-based; details: in vivo, dose 4-8 mg/kg
[23] = Toxicity in BALB/c mouse model of Sepsis infected with methicillin-resistant Staphylococcus aureus M11 assessed as lesions in kidney at 4 to 8 mg/kg measured after 24 hrs by H and E staining based analysis; format: organism-based; details: in vivo, dose 4-8 mg/kg
Staphylococcus aureus [24] = experiment: Disruption of cell membrane in methicillin-resistant Staphylococcus aureus M11 assessed as roughness in cell membrane at 4 ug/ml incubated for 4 hrs by SEM analysis; format: functional, organism-based; details: dose 4.0 µg/ml
Staphylococcus aureus [25] = experiment: Disruption of cell membrane in methicillin-resistant Staphylococcus aureus M11 assessed as wrinkling in cell membrane at 4 ug/ml incubated for 4 hrs by SEM analysis; format: functional, organism-based; details: dose 4.0 µg/ml
Staphylococcus aureus [26] = experiment: Disruption of cell membrane in methicillin-resistant Staphylococcus aureus M11 assessed as cell membrane rupture at 4 ug/ml incubated for 4 hrs by SEM analysis; format: functional, organism-based; details: dose 4.0 µg/ml
Staphylococcus aureus [27] = experiment: Disruption of cell membrane in methicillin-resistant Staphylococcus aureus M11 assessed as increase in red fluorescence in nuclei at 4 ug/ml incubated for 4 hrs by DAPI/PI staining based analysis; format: functional, organism-based; details: dose 4.0 µg/ml
Staphylococcus aureus [28] = experiment: Depolarization of cell membrane in methicillin-resistant Staphylococcus aureus M11 assessed as increase in fluorescence intensity incubated for 30 mins by DiSC3(5) dye based analysis; format: functional, organism-based
Staphylococcus aureus [29] = experiment: Induction of cell permeability in methicillin-resistant Staphylococcus aureus M11 assessed as fold increase in fluorescence intensity at 32 times MIC by SYTOX Green dye based analysis relative to control; format: functional
Staphylococcus aureus [30] = experiment: Disruption of cell membrane in methicillin-resistant Staphylococcus aureus M11 assessed as fold increase in protein leakage at 4 ug/ml incubated for 4 hrs by micro-spectrophotometric analysis relative to control; format: functional; details: dose 4 µg/ml
Staphylococcus aureus [31] = experiment: Induction of ROS production in methicillin-resistant Staphylococcus aureus M11 incubated for 1 hr by DCFH-DA probe based analysis; format: functional, organism-based; details: dose <= 32.0 µg/ml
Staphylococcus aureus [32] = experiment: Antibacterial activity against methicillin-resistant Staphylococcus aureus M11 up to 128 ug/ml in presence of cardiolipin incubated for 16 to 18 hrs; format: functional, organism-based; details: dose <= 128.0 µg/ml, time 16-18 hrs
Staphylococcus aureus [33] = experiment: Antibacterial activity against methicillin-resistant Staphylococcus aureus M11 up to 128 ug/ml in presence of peptidoglycan incubated for 16 to 18 hrs; format: functional, organism-based; details: dose <= 128.0 µg/ml, time 16-18 hrs
Staphylococcus aureus [34] = experiment: Antibacterial activity against methicillin-resistant Staphylococcus aureus M11 up to 128 ug/ml in presence of 32 ug/ml cardiolipin incubated for 16 to 18 hrs; format: functional; details: dose <= 128 µg/ml, time 16-18 hrs
Staphylococcus aureus [35] = experiment: Antibacterial activity against methicillin-resistant Staphylococcus aureus M11 up to 128 ug/ml in presence of 32 ug/ml peptidoglycan incubated for 16 to 18 hrs; format: functional; details: dose <= 128 µg/ml, time 16-18 hrs
Staphylococcus aureus [36] = experiment: Antibacterial activity against methicillin-resistant Staphylococcus aureus M11 assessed as fold increase in MIC up to 128 ug/ml in presence of 128 ug/ml peptidoglycan incubated for 16 to 18 hrs relative to control; format: functional; details: dose <= 128 µg/ml; time 16-18 hrs

Structure (SMILES) | MIC (Staphylococcus aureus [1]) | MIC (Staphylococcus aureus [2]) | MIC (Staphylococcus aureus [3]) | MIC (Staphylococcus aureus [4]) | MIC (Staphylococcus aureus [5]) | MIC (Staphylococcus aureus [6]) | MIC (Escherichia coli) | HC50 [7] | Activity (Staphylococcus aureus [8]) | Activity (Staphylococcus aureus [9]) | Activity [10] | Activity [11] | MTD at 168 h [12] | Activity (Staphylococcus aureus [13]) | Activity (Staphylococcus aureus [14]) | Activity (Staphylococcus aureus [15]) | Activity (Staphylococcus aureus [16]) | Activity (Staphylococcus aureus [17]) | Activity [18] | Activity [19] | also measured
CCCCCNC(=O)C[n+]1ccc(SCCCCCOc2ccc3ccc(=O)oc3c2CC=C(C)C)cc1.[Br-] | 1 µg/mL | 1 µg/mL | 0.5 µg/mL | 0.5 µg/mL | 0.5 µg/mL | 0.5 µg/mL | > 128 µg/mL | > 160 µg/mL | Active | Active | Non-toxic | Non-toxic | 10 mg/kg | Active | Active | 99.985% | 3.828 log10CFU/g | Dose-dependent-effect | Non-toxic | Non-toxic | Activity [20]: Non-toxic; Activity [21]: Non-toxic; Activity [22]: Non-toxic; Activity [23]: Non-toxic; Activity (Staphylococcus aureus [24]): Active; Activity (Staphylococcus aureus [25]): Active; Activity (Staphylococcus aureus [26]): Active; Activity (Staphylococcus aureus [27]): Active; Activity (Staphylococcus aureus [28]): Dose-dependent-effect; Activity Was Observed Higher Than Melittin; fold change (FC) (Staphylococcus aureus [29]): ~10; fold change (FC) (Staphylococcus aureus [30]): ~4; Activity (Staphylococcus aureus [31]): Dose-dependent-effect; Activity (Staphylococcus aureus [32]): Active; Compound Showed Only Minor Or No Change In Mic; Activity (Staphylococcus aureus [33]): Active; Compound Showed Only Minor Or No Change In Mic; MIC (Staphylococcus aureus [34]): 1 µg/mL; MIC (Staphylococcus aureus [35]): 1 µg/mL; fold change (FC) (Staphylococcus aureus [36]): 32
CC(C)=CCc1c(OCCCCSc2cc[n+](CC(=O)N(CC(C)C)CC(C)C)cc2)ccc2ccc(=O)oc12.[Br-] | 0.5 µg/mL | 1 µg/mL | 0.5 µg/mL | 0.5 µg/mL | 0.5 µg/mL | 0.5 µg/mL | > 128 µg/mL | > 160 µg/mL | Active | Active | Non-toxic | Non-toxic | 30 mg/kg | Active | Active | 99.994% | 4.252 log10CFU/g | Dose-dependent-effect | Non-toxic | Non-toxic | Activity [20]: Non-toxic; Activity [21]: Non-toxic; Activity [22]: Non-toxic; Activity [23]: Non-toxic; Activity (Staphylococcus aureus [24]): Active; Activity (Staphylococcus aureus [25]): Active; Activity (Staphylococcus aureus [26]): Active; Activity (Staphylococcus aureus [27]): Active; Activity (Staphylococcus aureus [28]): Dose-dependent-effect; Activity Was Observed Higher Than Melittin; fold change (FC) (Staphylococcus aureus [29]): ~10; fold change (FC) (Staphylococcus aureus [30]): ~4; Activity (Staphylococcus aureus [31]): Dose-dependent-effect; Activity (Staphylococcus aureus [32]): Active; Compound Showed Only Minor Or No Change In Mic; Activity (Staphylococcus aureus [33]): Active; Compound Showed Only Minor Or No Change In Mic; MIC (Staphylococcus aureus [34]): 1 µg/mL; MIC (Staphylococcus aureus [35]): 1 µg/mL; fold change (FC) (Staphylococcus aureus [36]): 32
